Test [1] has as its system centrosomal localization of GST-Plk-1 PBD in U2OS cells. Description: Centrosomal localization of GST-Plk-1 PBD in permeabilized U2OS cells with peptide competition. The format is cell-based, human. The following applies: 250 μM peptide; nocodazole-arrested, Streptolysin-O permeabilized U2OS cells. On the procedure: U2OS cells were cultured in 8-well chamber slides and arrested at G2/M by treatment with nocodazole (50 ng/mL) for 14 hours. After rinsing with PBS, cells were incubated with 4 μM GST-Plk-1 PBD (residues 326-603) and Streptolysin-O (1 U/ml) in permeabilization buffer (25 mM HEPES (pH 7.9), 100 mM KCl, 3 mM NaCl, 200 mM sucrose, 20 mM NaF, 1 mM NaOVO4) for 20 minutes at 37° C. Cells were fixed in 3% paraformaldehyde/2% sucrose for 10 minutes at room temperature and extracted with a 0.5% Triton X-100 solution containing 20 mM Tris-HCl (pH 7.4), 50 mM NaCl, 300 mM sucrose, and 3 mM MgCl2 for 10 minutes at RT. […] Cells were examined using a Nikon Eclipse E600 fluorescence microscope equipped with a SPOT RTcamera and software (Diagnostic Instruments, Livingston, Scotland). Images were analyzed using NIH Image. […]
The normalized intensity of centrosome-specific Alexa Fluor 488 staining (N.I.AF488) or Texas Red staining (N.I.TR) above background was defined as ([Icentrosome−1cell]/Icell) where Icentrosome indicates the fluorescence intensity of either Alexa-Fluor 488 or Texas Red averaged over the centrosome and Icell indicates the overall fluorescence intensity averaged over the entire cell. The relative GST-PBD/γ-tubulin specific staining was then calculated as N.I.AF488/NITR.

The target in a further test is T1, GST-Plk1 (full-length) (Homo sapiens, UniProt P53350).
T1 construct: SF9 cells infected with baculoviral GST-Plk1 (full-length) were lysed; made in house; host or cells: SF9 insect cells (baculovirus)
Nature of the test: Plk1 kinase assay (32P-incorporation into casein) with peptide activation. The format is biochemical. The following applies: 250 μM peptide pre-incubated 5 minutes at room temperature; three independent experiments. The protocol:
SF9 cells infected with baculoviral GST-Plk1 (full-length) were lysed in 20 mM Hepes/KOH (pH 7.5), 135 mM NaCl, 1% NP40, 5 mM EGTA, 5 μM 13-mercaptoethanol, 35 mM NaF, 0.5 mM Na3VO4, 20 mM β-glycerolphosphate, 3 μM microcystin, 1 μM okadaic acid, 10 μg/mL pepstatin, 10 μg/mL leupeptin, and 10 μg/mL aprotinin. Lysates were incubated for 2 hours at 4° C. with glutathione beads, which were subsequently washed five times with 20 mM Hepes/KOH (pH 7.5), 415 mM NaCl, 0.1% CHAPS, 5 mM EGTA, 5 μM β-mercaptoethanol, 35 mM NaF, and 0.5 mM Na3VO4 at 4° C. Bound proteins were eluted with a buffer containing 30 mM glutathione, 50 mM Hepes/KOH (pH 8.0), 25 mM NaCl, 2 mM MgCl2, 1 mM EGTA, and 5 μM β-mercaptoethanol and dialyzed against 10 mM Hepes, 10 mM NaCl, 1 mM EGTA, 1 mM DTT for 3 hours at 4° C. Kinase reactions were performed in 20 mM Hepes/KOH (pH7.5), 15 mM KCl, 10 mM MgCl2, 1 mM EGTA, 100 µM ATP, 5 μCi γ-[^32P]-ATP, 1 mM DTT, and […] casein for 15 minutes at 30° C. Reaction aliquots were removed at various time points, added to sample buffer, and boiled to arrest phosphorylation. ^32P-incorporation into casein was determined by SDS-PAGE electrophoresis, autoradiography, and densitometry using ImageQuant software (Molecular Dynamics). […]

The values below come from patent publication US20110104713A1, “PRODUCTS AND PROCESSES FOR MODULATING PEPTIDE-PEPTIDE BINDING DOMAIN INTERACTIONS” (priority 2002, published 2011).

T1 sequence (P53350 whole entry): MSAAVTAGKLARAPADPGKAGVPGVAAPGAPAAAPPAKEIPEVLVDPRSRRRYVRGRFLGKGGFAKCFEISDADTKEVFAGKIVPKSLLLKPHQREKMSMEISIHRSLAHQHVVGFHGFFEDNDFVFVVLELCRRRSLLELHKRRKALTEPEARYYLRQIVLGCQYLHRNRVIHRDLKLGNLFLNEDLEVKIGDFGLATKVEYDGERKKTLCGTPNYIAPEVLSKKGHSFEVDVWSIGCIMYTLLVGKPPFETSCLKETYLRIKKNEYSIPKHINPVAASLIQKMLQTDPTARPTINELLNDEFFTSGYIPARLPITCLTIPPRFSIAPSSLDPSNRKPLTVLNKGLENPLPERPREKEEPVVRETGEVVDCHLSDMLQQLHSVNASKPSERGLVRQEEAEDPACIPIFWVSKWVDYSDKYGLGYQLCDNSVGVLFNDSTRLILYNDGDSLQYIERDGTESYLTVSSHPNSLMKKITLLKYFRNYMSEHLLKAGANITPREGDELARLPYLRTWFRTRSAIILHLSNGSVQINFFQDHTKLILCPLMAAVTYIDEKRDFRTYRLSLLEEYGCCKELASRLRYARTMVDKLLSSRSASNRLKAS

On to “MAGPMQ-S-T-P-LNGAKK (MAGPMQSTPLNGAKK) [PoloBoxtide-8T]”, for which the “effect of peptide on centrosomal localization of Plk-1 PBD” value in test [1] is on record as “unaffected”. Also, the “enhancement of Plk1 kinase activity (rate of casein phosphorylation), factor” value in the test with GST-Plk1 (full-length) is reported as “had no effect”.
